Assay results reported in PMC8466300, “Investigating the Central Nervous System Disposition of Actinomycin D: Implementation and Evaluation of Cerebral Microdialysis and Brain Tissue Measurements Supported by UPLC-MS/MS Quantification” (Pharmaceutics, 2021).
Values joined by “and” are separate entries in the source; they are usually repeats but may differ in a detail not shown here. Identical values can stand only once. *1 amine or outer side, *2 acyl side, *3 side chain or, on linkers, in order; H or OH if unused. Where a SMILES comes first, the peptide text is derived from it. Bridges are numbered along the chain shown (N, C = ends). Roman numbers before positions name the chains, in order. [ ]: non-standard residue; d: D form. Actinocin(9to1) = Cc1c2oc3c(C)ccc(C(=O)[*:1])c3nc-2c(C(=O)[*:2])c(N)c1=O; NMeV = CN[C@H](C(=O)O)C(C)C; Sar = CNCC(=O)O

Legend:
[1] = Plasma and brain tissue concentrations after intravenous bolus injection (CNS disposition); type: in vivo, mice; conditions: for Brain-to-Plasma Ratio: total concentrations
Experimental: The experiments were carried out in accordance with the European regulations for care and use of laboratory animals (2010/63/EU) under the German license number G-187/18 and the internal reference number DKFZ374, approved by the responsible regional council (Regierungspräsidium Karlsruhe, Germany). Female 8-week-old NSG mice (NOD.Cg-Prkdc^scid Il2rg^tm1Wjl/SzJ-NOD-SCID gamma-mice) with a weight of approximately 25 g were used for the studies. For microdialysis experiments, a microdialysis guide cannula was stereotactically implanted into the right striatum and stabilized with screws and dental acrylic cement. Mice received analgesia (metamizole) and anesthesia with isoflurane during surgery. After six days of recovery, the microdialysis procedure was initiated. A microdialysis probe (CMA7, 1 mm, molecular cut-off 55 kDa, CMA Microdialysis AB, Kist, Sweden) was inserted through the guide cannula and connected to a pump system operating at a constant flow rate of 0.5 µL/min Ringer-1 % bovine serum albumin (BSA) solution. Throughout the study, mice could freely move. Microdialysis samples were serially collected each hour. Because the number of blood collections in individual mice is limited, we estimated the optimal timepoints for a pharmacokinetic feasibility study by allometric simulation of actinomycin D’s pharmacokinetic profile in mice according to published data in humans. For the allometric simulation, mouse plasma pharmacokinetic profiles were simulated by allometrically scaling the clearance and volumes parameters using classic exponents (0.75 for clearances and 1 for volumes) […], based on 0.5 mg/kg dosage. […] Therefore, we chose to take blood samples 0.75, 6, and 22 h after intravenous bolus injection into the tail vein for the assay’s feasibility pharmacokinetic experiment. Three animals received an intravenous bolus injection of 0.5 mg/kg actinomycin D in 0.125 mL per mouse (25 g) of a 0.1 mg/mL dosing solution. This dosage corresponds to the usual therapy protocols in humans according to allometric scaling. Full blood samples were transferred into citrate tubes (Sarstedt, Germany) and centrifuged at 1600× g for 10 min to generate plasma samples, which were stored at −80 °C until analysis. For determination of actinomycin D disposition in the CNS, brain tissue, and plasma samples were harvested following euthanasia with increasing concentrations of CO2 at 2 h (three animals) or 22 h (four animals) after intravenous bolus injection of 0.5 mg/kg actinomycin D. Samples were stored at −80 °C until analysis. For validation of the UPLC-MS/MS quantification, blank plasma from 6 naïve mice was used and blank brain tissue was obtained from 2 unexposed mice. Whole brain tissue was homogenized using a Bead Ruptor 4 homogenizer (Omni International Inc, Kennesaw, GA, USA) in acetonitrile (ACN)/water (1/19, v/v) + 0.5 % Triton X and 0.1 % formic acid (FA) (100 mg brain tissue/mL) in 2.0 mL tubes containing ~25 glass beads (0.75–1 mm; Carl Roth GmbH, Karlsruhe, Germany) for 2 × 1 min.
For protein precipitation of plasma microsamples, an excess of ACN (50 µL) with 0.1% FA containing the IS was applied to an Impact® 96-well protein precipitation plate (Phenomenex, Torrance, CA, USA). Subsequently, 20 µL of the plasma samples were added and the plates sealed and shaken for 1 min. Brain tissue homogenate samples were processed accordingly. For protein depletion, samples were filtered into a 96-well collection plate (Waters, Milford, MA, USA) by applying positive pressure with a 96-well positive pressure unit (Waters, Milford, MA, USA) operated with air overpressure of 5 psi. After addition of 40 µL of water containing 0.1% FA, the collection plates were sealed, shaken, and extracts injected onto the UPLC system.

in vitro = conditions: mouse, plasma
Experimental: To determine the previously unknown unbound fraction of actinomycin D in plasma and brain tissue homogenate, we performed rapid equilibrium dialysis (RED) in duplicate. For this, samples were spiked with drug solutions that were prepared in plasma or brain tissue homogenate to obtain minimally diluted samples (30 ng/mL for plasma and 30 ng/g for brain tissue). The free actinomycin D tissue fraction was also quantified in a pooled sample of brain tissue homogenates from the three mice euthanized 2 h after dosing. Determinations were performed on a RED apparatus (ThermoFisher Scientific, Waltham, MA, USA) according to the manufacturer´s instructions under gentle agitation for 12 h at 37 °C.

LLC-PK1 cells = conditions: read-out: IC50 (proliferation); LLC-PK1 parental cells; four experiments, each concentration in octuplet; ten concentrations 0.0005–10 µM; sigmoid Emax model
Experimental: (§1) To confirm the P-gp substrate characteristics of actinomycin D, we conducted growth inhibition and uptake assays in a cell line over-expressing human P-gp/ABCB1 (L-MDR1 cells) in comparison to the respective parental cell line (LLC-PK1). L-MDR1 cells were kindly provided by A. H. Schinkel (The Netherlands Cancer Institute, Division of Experimental Therapy, Amsterdam, The Netherlands). The cells were cultured under standard cell culture conditions with medium M199 supplemented with 10% FCS, 2 mM glutamine, 100 U/mL penicillin, and 100 µg/mL streptomycin sulfate. The culture medium for L-MDR1 was supplemented with 0.64 µM vincristine to maintain P-gp/ABCB1 expression. One day before using the cells in the assays, both cell lines were fed with vincristine-free culture medium.
The assays were performed in quadruplicate, as described previously, using ten concentrations of actinomycin D from 0.0005–10 µM in octuplets.
Calibration curves were determined with 1/x^2 weighted linear regression using peak area ratios of the analyte to IS. This calculation was performed using the software TargetLynx V4.2 (Waters, Milford, MA, USA). Plasma pharmacokinetics were determined with the software Kinetica (v 5.0; Thermo Fisher Scientific, Waltham, MA, USA). Standard calculations were performed using Microsoft Office Excel 2010 ([…]). Concentration–response curves and IC50 values were calculated by GraphPad Prism version 9.0.0 (GraphPad Software Inc., La Jolla, CA, USA) according to a sigmoid Emax model.

P-gp/ABCB1 = P-gp/ABCB1 (Homo sapiens, UniProt P08183); conditions: 0.01 µM, 10-120 min, 37 °C, 1 million cells, duplicate, cell homogenate UPLC-MS/MS; L-MDR1 vs LLC-PK1
P-gp/ABCB1, sequence (P08183 whole entry): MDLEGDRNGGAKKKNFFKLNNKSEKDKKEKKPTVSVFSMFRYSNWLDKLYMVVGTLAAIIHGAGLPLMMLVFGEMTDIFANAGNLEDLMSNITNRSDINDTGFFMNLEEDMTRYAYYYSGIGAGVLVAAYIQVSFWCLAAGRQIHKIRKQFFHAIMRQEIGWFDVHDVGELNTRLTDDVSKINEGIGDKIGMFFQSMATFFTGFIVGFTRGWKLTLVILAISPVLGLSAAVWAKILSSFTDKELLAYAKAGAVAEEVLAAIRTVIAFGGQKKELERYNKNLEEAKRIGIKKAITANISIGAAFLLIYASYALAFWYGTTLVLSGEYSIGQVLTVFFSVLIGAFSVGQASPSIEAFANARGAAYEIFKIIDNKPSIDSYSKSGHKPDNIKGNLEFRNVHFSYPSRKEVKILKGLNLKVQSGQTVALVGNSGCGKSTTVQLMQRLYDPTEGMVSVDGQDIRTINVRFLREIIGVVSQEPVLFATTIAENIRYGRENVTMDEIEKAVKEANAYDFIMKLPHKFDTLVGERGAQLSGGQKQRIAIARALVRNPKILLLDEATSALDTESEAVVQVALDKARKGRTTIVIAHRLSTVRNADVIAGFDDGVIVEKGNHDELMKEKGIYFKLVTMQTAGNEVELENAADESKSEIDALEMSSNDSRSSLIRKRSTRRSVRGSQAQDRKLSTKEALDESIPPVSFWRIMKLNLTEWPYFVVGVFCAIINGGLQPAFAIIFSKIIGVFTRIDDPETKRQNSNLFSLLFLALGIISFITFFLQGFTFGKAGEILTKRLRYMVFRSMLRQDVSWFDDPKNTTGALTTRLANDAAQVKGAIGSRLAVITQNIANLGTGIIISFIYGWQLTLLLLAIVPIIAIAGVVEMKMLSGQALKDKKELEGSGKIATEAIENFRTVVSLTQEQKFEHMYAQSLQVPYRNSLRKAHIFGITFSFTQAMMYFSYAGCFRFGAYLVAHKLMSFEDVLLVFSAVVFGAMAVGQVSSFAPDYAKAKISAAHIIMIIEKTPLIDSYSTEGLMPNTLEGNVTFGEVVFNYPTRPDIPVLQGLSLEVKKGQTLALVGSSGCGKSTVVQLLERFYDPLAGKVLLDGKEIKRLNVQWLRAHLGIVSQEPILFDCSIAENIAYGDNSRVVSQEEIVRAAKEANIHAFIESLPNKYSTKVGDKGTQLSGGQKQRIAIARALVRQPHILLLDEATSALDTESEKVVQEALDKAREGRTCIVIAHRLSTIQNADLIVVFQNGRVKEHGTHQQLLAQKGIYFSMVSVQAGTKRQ
Experimental: as §1

[2] = Non-specific binding to microdialysis equipment; type: physicochemical; conditions: in vitro; polypropylene sampling tubes; reduced by BSA ≥1% in Ringer solution
Experimental: In preparation of the cerebral microdialysis, we first investigated the adsorption and recovery characteristics of the microdialysis probes, tubing, and pump system, to test the validity of the microdialysis determinations. […] In order to reduce nonspecific binding, BSA supplement of the microdialysis buffer was tested in different concentrations, ranging from 0.1 to 2%. […] Therefore, 1% BSA in Ringer solution was used for all microdialysis experiments.

[3] = 7 months at −20 °C; cited from earlier work

## Cc1c2oc3c(C)ccc(C(=O)N[C@@H]4C(=O)N[C@H](C(C)C)C(=O)N5CCC[C@H]5C(=O)N(C)CC(=O)N(C)[C@@H](C(C)C)C(=O)O[C@@H]4C)c3nc-2c(C(=O)N[C@@H]2C(=O)N[C@H](C(C)C)C(=O)N3CCC[C@H]3C(=O)N(C)CC(=O)N(C)[C@@H](C(C)C)C(=O)O[C@@H]2C)c(N)c1=O [actinomycin D, Actinomycin D] (I: T[dV]P[Sar][NMeV] / II: T[dV]P[Sar][NMeV]; ester I:1-I:C, II:1-II:C; linker I:N-II:N via Actinocin(9to1))
[1]; female, NSG (NOD.Cg-Prkdc^scid Il2rg^tm1Wjl/SzJ), mouse, brain, iv, mice, 0.5 mg/kg i.v., after 2 h, read-out: brain tissue concentration
  level at time molar at 2 h: ~3 nM
[1]; female, NSG (NOD.Cg-Prkdc^scid Il2rg^tm1Wjl/SzJ), mouse, brain, iv, mice, 0.5 mg/kg i.v., after 22 h, read-out: brain tissue concentration
  level at time molar at 22 h: ~1.2 nM
[1]; female, NSG (NOD.Cg-Prkdc^scid Il2rg^tm1Wjl/SzJ), mouse, iv, mice, 0.5 mg/kg i.v., 2 h, whole brain homogenate after cardiac perfusion with PBS, UPLC-MS/MS, mean of 3 mice, read-out: Brain Actinomycin D (total brain tissue concentration)
  tissue level at time at 2 h: 4.1 ng/g
[1]; female, NSG (NOD.Cg-Prkdc^scid Il2rg^tm1Wjl/SzJ), mouse, plasma, iv, mice, 0.5 mg/kg i.v., 2 h after administration, UPLC-MS/MS, mean of 3 mice, read-out: Plasma Actinomycin D
  level at 2 h: 22.7 ± 3.9 ng/mL
[1]; female, NSG, mouse, iv, mice, 0.5 mg/kg i.v., 22 h, whole brain homogenate after cardiac perfusion with PBS, UPLC-MS/MS, mean of 4 mice, read-out: Brain Actinomycin D (total brain tissue concentration)
  tissue level at time at 22 h: 1.67 ± 0.77 ng/g
[1]; female, NSG, mouse, plasma, iv, mice, 0.5 mg/kg i.v., 22 h after administration, UPLC-MS/MS, mean of 4 mice, read-out: Plasma Actinomycin D
  level at 22 h: 3.4 ± 1.45 ng/mL
[1]; mice, 0.5 mg/kg i.v., 2 h, whole brain homogenate after cardiac perfusion with PBS, UPLC-MS/MS, mean of 3 mice, 0.5 mg/kg
  Brain Actinomycin D (total brain tissue concentration): 4.14 ± 0.50 ng/g
[1]; mice, 0.5 mg/kg i.v., 2 h, mean of 3 mice, 0.5 mg/kg
  Brain-to-Plasma Ratio: 0.18 and 0.18 ± 0.03
[1]; mice, 0.5 mg/kg i.v., 2 h, mouse 1
  Brain-to-Plasma Ratio: 0.21
[1]; mice, 0.5 mg/kg i.v., 2 h, mouse 2
  Brain-to-Plasma Ratio: 0.18
[1]; mice, 0.5 mg/kg i.v., 2 h, mouse 3
  Brain-to-Plasma Ratio: 0.16
[1]; mice, 0.5 mg/kg i.v., 22 h, mean of 4 mice
  Brain-to-Plasma Ratio: 0.53 ± 0.26
[1]; mice, 0.5 mg/kg i.v., 22 h, mouse 4
  Brain-to-Plasma Ratio: 0.80
[1]; mice, 0.5 mg/kg i.v., 22 h, mouse 5
  Brain-to-Plasma Ratio: 0.37
[1]; mice, 0.5 mg/kg i.v., 22 h, mouse 6
  Brain-to-Plasma Ratio: 0.18
[1]; mice, 0.5 mg/kg i.v., 22 h, mouse 7
  Brain-to-Plasma Ratio: 0.77
[1]; mouse #1, 0.5 mg/kg i.v., 2 h, homogenate at 0.1 g tissue/mL, UPLC-MS/MS
  actinomycin D concentration in brain tissue homogenate: 0.409 ng/mL
In vitro
  fraction unbound at 12 h, 30 ng/mL: 0.231
LLC-PK1 cells
  IC50: 21 ± 6 nM
P-gp/ABCB1
  accumulation in P-gp over-expressing cell line versus parental cell line: lower accumulation
[2]
  non-specific binding to microdialysis equipment: substantially adhered
[3]
  long-term stability in human plasma: has already been demonstrated
